pIC50: −log10 of the molar value. Where two headings read alike, the source gives them in different places. Where a SMILES comes first, the peptide text is derived from it. [ ]: non-standard residue; d: D form. The star is where a group is joined. Cbz = O=C(OCc1ccccc1)*
Tests used:
GADD45β/MKK7 complex = molecular target: T1, GADD45β/MKK7 complex (Homo sapiens, UniProt O14733); test: ELISA GADD45β/MKK7 competition assay; type: binding; settings: for inhibition at 0.042 µM: peptide at 42 nM
T1 construct: Full-length human (h)MKK7 was expressed as a protein fused to an N-terminal GST tag (GST-MKK7); made in house
T1 sequence (O14733 1-419): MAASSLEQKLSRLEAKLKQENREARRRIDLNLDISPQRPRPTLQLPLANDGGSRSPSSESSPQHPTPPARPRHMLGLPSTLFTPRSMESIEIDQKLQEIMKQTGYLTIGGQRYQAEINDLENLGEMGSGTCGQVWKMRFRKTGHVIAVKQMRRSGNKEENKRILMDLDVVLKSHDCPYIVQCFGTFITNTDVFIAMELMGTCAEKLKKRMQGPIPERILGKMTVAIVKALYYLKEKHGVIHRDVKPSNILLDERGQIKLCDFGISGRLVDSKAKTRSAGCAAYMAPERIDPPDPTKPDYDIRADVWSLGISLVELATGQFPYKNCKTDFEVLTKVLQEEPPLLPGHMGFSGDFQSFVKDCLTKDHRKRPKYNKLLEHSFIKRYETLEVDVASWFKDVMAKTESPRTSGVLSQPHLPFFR
Excerpt: Additional details are provided in Supplemental Experimental Procedures.
(1:1,000) and the HRP chromogenic substrate, o -phenylenediamine (OPD). GST -coated wells wer e […]
The ELISA competition screen used f or the isolation of antagonists of the GADD45β /MKK7 […]
The library deconvolution strategy used for this screen was described previously […]
General information about this type of screens can be found elsewhere […]
Values were expressed as the percentage of inhibition of His6-hGADD45β binding to GST-hMKK7 relative to the binding measured in the absence of […]
Dose-response, ELISA GADD45β /MKK7 competition assays were carried out under similar […]
As part of the SAR analysis and lead optimization process, where appropriate, competitors were tested at a concentration up to 100 nM. In order to determine their stability in biolog ical f luids , peptides were incubated at the concentration of 10 µM in […]
calculated using at least 7 concentrations of peptide and def ined as the mean concentration of peptide […]
the absence of competitor. W here indicated, values were expressed as the percentage of inhibition of His 6 -hGADD45β binding to GST-hMKK7 relative to the binding measured in the absence of competitor.
GST was used as a control in all the experiments. […]
tetrapeptide used as negative control in some of the ELISA and cellular assays was as f ollows: z -DNC, z-T yr -Asp-His-Gln-NH 2 . […]

aqueous solubility = type: physicochemical
U266 MM cells = settings: read-out: IC50 (U266 cells); Table S3; day 6; [3H]thymidine incorporation or trypan blue exclusion
[1] = Table S4, read-out: IC50s (ELISA)
[2] = Table S4, values marked (#), read-out: % inhibition of (ELISA)
[3] = Table S3, peptide at 10 nM, read-out: % inhibition (ELISA)
[4] = Table S3, read-out: IC50 (ELISA)
[5] = read-out: % inhibition of (ELISA)

## CC(=O)N[C@@H](Cc1c[nH]c2ccccc12)C(=O)N[C@@H](CC(=O)O)C(=O)N[C@@H](CCCNC(=N)N)C(=O)N[C@@H](Cc1c[nH]c2ccccc12)C(N)=O [Ac-WDRW-NH2] (Ac-WDRW-NH2)
GADD45β/MKK7 complex; Table S2, read-out: % inhibition (ELISA)
  inhibition at 0.042 µM: 93%
GADD45β/MKK7 complex; [1]
  pIC50: > 7.38
Aqueous solubility
  aqueous solubility: low

## CC(=O)N[C@H](Cc1ccc(O)cc1)C(=O)N[C@H](CCC(=O)O)C(=O)N1CCC[C@@H]1C(=O)N[C@H](Cc1ccccc1)C(N)=O [Ac-YEPF-NH2] (Ac-[dY][dE][dP][dF]-NH2)
GADD45β/MKK7 complex; [2]
  inhibition at 0.042 µM: 13%

## CC(=O)N[C@H](Cc1ccc(O)cc1)C(=O)N[C@H](CCC(=O)O)C(=O)N[C@H](CCCNC(=N)N)C(=O)N[C@H](C)C(N)=O [Ac-YERA-NH2] (Ac-[dY][dE][dR][dA]-NH2)
GADD45β/MKK7 complex; Table S4, values marked (##), peptide at 10 nM, read-out: % inhibition of (ELISA)
  inhibition at 0.01 µM: 28%

## CC(=O)N[C@H](Cc1ccc(O)cc1)C(=O)N[C@H](CCC(=O)O)C(=O)N[C@H](CCCNC(=N)N)C(=O)N[C@H](Cc1ccccc1)C(=O)N[C@H](CCCCNC(=O)OCc1ccccc1)C(N)=O [Ac-YERFK(εZ)-NH2] (Ac-[dY][dE][dR][dF][dK](Cbz)-NH2)
GADD45β/MKK7 complex; [3]
  inhibition at 0.01 µM: 6%
GADD45β/MKK7 complex; [4]
  pIC50: < 8.00

## CC(=O)N[C@H](Cc1ccc(O)cc1)C(=O)N[C@H](CCC(=O)O)C(=O)N[C@H](CCCNC(=N)N)C(=O)N1CCC[C@@H]1C(N)=O [Ac-YERP-NH2] (Ac-[dY][dE][dR][dP]-NH2)
GADD45β/MKK7 complex; [2]
  inhibition at 0.042 µM: 0%

## CC(=O)N[C@H](Cc1ccc(O)cc1)C(=O)N1CCC[C@@H]1C(=O)N[C@H](CCCNC(=N)N)C(=O)N[C@H](Cc1ccccc1)C(N)=O [Ac-YPRF-NH2] (Ac-[dY][dP][dR][dF]-NH2)
GADD45β/MKK7 complex; [2]
  inhibition at 0.042 µM: 13%

## NC(=O)[C@@H](Cc1ccccc1)NC(=O)[C@@H](Cc1c[nH]cn1)NC(=O)[C@@H](CC(=O)O)NC(=O)[C@@H](Cc1ccc(O)cc1)NC(=O)c1ccccc1 [Benzoyl-YDHF-NH2]
GADD45β/MKK7 complex
  pIC50: < 8.00
GADD45β/MKK7 complex; read-out: % inhibition (ELISA)
  inhibition at 0.01 µM: 0%
GADD45β/MKK7 complex; [5]
  inhibition at 0.01 µM: 1%
U266 MM cells
  pIC50: < 5.00

## NC(=O)CC[C@@H](NC(=O)[C@@H](Cc1c[nH]cn1)NC(=O)[C@@H](CC(=O)O)NC(=O)[C@@H](Cc1ccc(O)cc1)NC(=O)c1ccccc1)C(N)=O [Benzoyl-YDHQ-NH2]
GADD45β/MKK7 complex
  pIC50: < 8.00
GADD45β/MKK7 complex; read-out: % inhibition (ELISA)
  inhibition at 0.01 µM: 1%
GADD45β/MKK7 complex; [5]
  inhibition at 0.01 µM: 0%
U266 MM cells
  pIC50: < 5.00

## N=C(N)NCCC[C@@H](NC(=O)[C@@H](CCC(=O)O)NC(=O)[C@@H](Cc1ccc(O)cc1)NC(=O)c1ccccc1)C(=O)N[C@H](Cc1ccccc1)C(N)=O [Benzoyl-YERF-NH2]
GADD45β/MKK7 complex
  pIC50: < 8.00
GADD45β/MKK7 complex; read-out: % inhibition (ELISA)
  inhibition at 0.01 µM: 24%
U266 MM cells
  pIC50: < 5.00

## NC(=O)CC[C@@H](NC(=O)[C@@H](Cc1c[nH]cn1)NC(=O)[C@@H](CC(=O)O)NC(=O)[C@@H](Cc1ccc(O)cc1)NC(=O)OCC1c2ccccc2-c2ccccc21)C(N)=O [Fmoc-YDFQ-NH2]
GADD45β/MKK7 complex; [3]
  inhibition at 0.01 µM: 19%

## NC(=O)[C@@H](Cc1ccccc1)NC(=O)[C@@H](Cc1c[nH]cn1)NC(=O)[C@@H](CC(=O)O)NC(=O)[C@@H](Cc1ccc(O)cc1)NC(=O)OCC1c2ccccc2-c2ccccc21 [Fmoc-YDHF-NH2]
GADD45β/MKK7 complex; [3]
  inhibition at 0.01 µM: 58%
GADD45β/MKK7 complex; [4]
  pIC50: > 8.00

## N=C(N)NCCC[C@@H](NC(=O)[C@@H](CCC(=O)O)NC(=O)[C@@H](Cc1ccc(O)cc1)NC(=O)OCC1c2ccccc2-c2ccccc21)C(=O)N[C@H](Cc1ccccc1)C(N)=O [Fmoc-YERF-NH2]
GADD45β/MKK7 complex; [3]
  inhibition at 0.01 µM: 60%
GADD45β/MKK7 complex; [4]
  pIC50: > 8.00

## NC(=O)[C@@H](Cc1ccccc1)NC(=O)[C@@H](Cc1c[nH]cn1)NC(=O)[C@H](N)Cc1ccc(O)cc1 [H-YHF-NH2]
GADD45β/MKK7 complex; [1]
  pIC50: 9.19

## N=C(N)NCCC[C@@H](NC(=O)[C@H](N)Cc1ccc(O)cc1)C(=O)N[C@H](Cc1ccc(O)cc1)C(N)=O [H-YRY-NH2]
GADD45β/MKK7 complex; [1]
  pIC50: 9.12

## CCCCCCCCCCCCCC(=O)N[C@H](Cc1ccc(O)cc1)C(=O)N[C@H](CC(=O)O)C(=O)N[C@H](Cc1c[nH]cn1)C(=O)N[C@H](Cc1ccccc1)C(N)=O [Myr-YDHF-NH2]
GADD45β/MKK7 complex; [3]
  inhibition at 0.01 µM: 26%
GADD45β/MKK7 complex; [4]
  pIC50: < 8.00
U266 MM cells
  pIC50: < 5.00
